Measured values taken from the METLIN SMRT retention time set (Domingo-Almenara et al. 2019).

Experiment: gradient 5% acetonitrile 3 min, to 50% in 2 min, to 85% in 15 min, held 3 min, 100 µL/min
Details: column: Zorbax Extend-C18 2.1 x 50 mm; eluents: water / acetonitrile, 0.1% formic acid
Outline: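 Over 3 months, pure standards in mixtures of ~100 molecules were run by HPLC coupled to a quadrupole time-of-flight mass spectrometer in positive and negative ionization mode. The column was a Zorbax Extend-C18 (2.1 × 50 mm, 1.8 μm) at 100 μL/min, eluted with water and acetonitrile each holding 0.1% formic acid, with 40 μL dead and 900 μL dwell volumes. Retention time was determined from adduct peaks chosen by software and checked manually.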

SMILES | RP-LC retention time [s]
CCN1CCN(c2nnc(-c3nc(C4CC4)no3)c3ccccc23)CC1 | 622
COc1ccc2nc3oc(C(=O)NCCc4ccsc4)cc3cc2c1 | 901
COc1cc(OC)cc(C(=O)NC2CCN(c3cc(-c4ccccc4)[nH]n3)C2)c1 (stereo unspecified) | 710
CCOc1ccc(-c2nc(CN3CCN(C(=O)NC4CCCCC4)CC3)c(C)o2)cc1 | 718
Cc1ccc(N(C)C(=O)C2CCN(S(=O)(=O)c3ccc(-c4noc(C5CC5)n4)cc3)CC2)cc1 | 1100
COc1cccc(C2NC(=O)NC(C)=C2C(=O)OC2CCCCCC2)c1OC (stereo unspecified) | 971
CCOc1ccc(S(=O)(=O)N2CCC(C(=O)NCCO)CC2)cc1C | 699
COc1cccc2sc(N(C)CC(=O)NCCc3cccs3)nc12 | 772
Cc1ccc(C)c(N2CCN(c3ccnc(SCC(=O)Nc4ccc(Cl)cc4F)n3)CC2)c1 | 1140
COc1ccc(F)cc1-c1cc(N2CCN(C(=O)NCC(C)C)CC2)ncn1 | 645
Cc1ccc(C(=O)N2CCc3sc(C(=O)N4CCC5(CC4)OCCO5)cc3C2)cc1 | 793
O=S(=O)(c1ccc(F)cc1Cl)N1CCCn2nc(-c3cccnc3)cc2C1 | 687
Cc1ccc(-n2ccc(=O)c(-c3nc(-c4ccccc4Br)no3)n2)cc1C | 1020
O=C1CC(c2nc(-c3ccccc3)no2)CN1c1ccc(F)cc1 (stereo unspecified) | 940
CC1=C(c2ccc(F)cc2)S(=O)(=O)N=C1N1CCCN(C(=O)c2ccco2)CC1 | 764
Cc1ccc2cc(CCC(=O)N3CCN(C4CCCCC4)CC3)c(=O)[nH]c2c1 | 610
Cn1c(=O)c(=O)n(C)c2cc(N3CCOCC3)c(NC(=O)C3CC3)cc21 | 623
CCOc1cccc(C2c3[nH]c4ccccc4c3CCN2C(=O)c2cccs2)c1 (stereo unspecified) | 1110
O=S(=O)(Nc1ccc(F)cc1)c1cccc2cccnc12 | 792
Fc1ccc(F)c(-c2nc(-c3cccc(-c4ccn[nH]4)c3)no2)c1 | 966
CCOC(=O)c1sc(NC(=O)C(CC)Sc2nc(C)cc(C)n2)nc1C (stereo unspecified) | 1080
COc1ccc(-c2noc(-c3cccnc3N3CCN(c4ccc(OC)cc4)CC3)n2)cc1 | 1070

SMILES | RP-LC retention time [s]
CNC(=O)c1ccc(Nc2c(-c3ccc(OC)cc3)nc3cnccn23)cc1 | 643
COc1ccc2[nH]cc(CCN3CC(C(=O)Nc4cc(F)cc(F)c4)CC3=O)c2c1 (stereo unspecified) | 821
CCC(C)NC(=O)N1CCc2c(c(-c3nc(C)no3)nn2C)C1 (stereo unspecified) | 673
CCOC(=O)c1cnc2ccc(OCC)cc2c1NCCN(C)C | 560
COc1ccc(C2NC(c3ccc(OC)c(OC)c3)C(C)C(=O)C2C)cc1OC (stereo unspecified) | 755
CC1CCN(C(=O)c2cn(-c3cc(-c4nc(C(C)C)no4)ccn3)cn2)CC1 | 640
CCN1C(=O)COc2ccc(-c3nc(NC(=O)C4CCCO4)sc3C)cc21 (stereo unspecified) | 844
O=C(NCC(F)(F)F)C1CCN(C(=O)c2c(F)cccc2Cl)CC1 | 686
COc1cccc(CNC(=O)C2CCN(S(=O)(=O)c3ccc4c(c3)NC(=O)C(C)O4)CC2)c1 (stereo unspecified) | 757
COc1cccc(N2CCN(S(=O)(=O)c3cc(-c4nc(C)cs4)cs3)CC2)c1 | 1070
Cc1ccc(NC(=O)CN2C(=O)C3CCCCN3c3ccc(S(=O)(=O)N(C)C)cc32)nc1 (stereo unspecified) | 828
O=C(CCC(=O)N1CCCC1c1nc2ccccc2s1)N1CCc2ccccc21 (stereo unspecified) | 876
CC(C)C(=O)N1CCc2cc(C(N)=O)ccc21 | 637
Cn1c(=O)oc2cc(-c3noc(-c4ccccc4)n3)ccc21 | 1010
O=C(c1csc(-c2ccc(N3CCSCC3)nc2)n1)N1CCC2(CC1)OCCO2 | 822
O=C(COc1ccccc1)Nc1cnc(N2CCCCC2)nc1 | 919
CCCN1C(=O)C2(c3cc(Br)ccc31)c1[nH]c3ccccc3c1CCN2C(C)=O (stereo unspecified) | 924
COc1ccc(NC(=O)C2CCN(c3cc(N4CCSCC4)ncn3)CC2)cc1OC | 627
Cc1nn(-c2cc(N3CCOCC3)ncn2)c(C)c1CCC(=O)N1CCN(c2ccccn2)CC1 | 618
CCCn1c(=O)sc2cc(S(=O)(=O)N3CCC(C(=O)N(C)Cc4ccccc4)CC3)ccc21 | 985
O=C(Nc1ccc2c(c1)CN(S(=O)(=O)Cc1ccccc1)CCO2)C1CC1 | 844
Cn1nc(C(=O)N2CCN(c3ccccc3Cl)CC2)ccc1=O | 727

SMILES | RP-LC retention time [s]
O=C(c1ccc(Br)o1)N1CCN(c2ccc(=O)n(-c3cccc(Cl)c3)n2)CC1 | 878
CC(C)C(=O)Nc1nc(-c2cccc3ccccc23)cs1 | 1020
Cc1cc(-n2nnc(C(=O)N3CCC(N4CCCCC4)CC3)c2-c2ccncc2)ccc1F | 602
COC(=O)Cn1c(-c2ccccc2)cnc1SCC(=O)Nc1nccs1 | 671
O=C(CN1CCN(Cc2ccccc2)C1=O)N1CCN(C2CCCCC2)CC1 | 601
Cc1nc(N2CCN(C(c3ccccc3)c3ccccc3)CC2)nc2c1C(=O)CC(c1cccs1)C2 (stereo unspecified) | 1150
CC(C)c1nc2c(c(=O)n1CC(=O)Nc1ccccc1)CCN(Cc1ccccc1)C2 | 674
Cc1ccc(-c2noc(Cn3c(=O)n(Cc4ccccc4)c(=O)c4sccc43)n2)cc1C | 1160
CC(=O)N[C@@H]1CN(C(=O)c2ccc3ncccc3c2)C[C@H]1CO | 536
Cc1cc(NC(=O)C2CCCN(c3ccc(=O)n(-c4cccc(F)c4)n3)C2)ccc1Br (stereo unspecified) | 1050
COc1ccccc1C(=O)N1c2ccccc2NC(=O)CC1C (stereo unspecified) | 639
O=C(Nc1nnc(C2CCCCC2)s1)C1CCN(C(=O)c2ccccc2)CC1 | 789
O=C(NCCn1c(=O)n(Cc2ccc(F)cc2)c2cccnc21)c1ccco1 | 719
CCOCCCNC(=O)c1ncoc1-c1ccccc1C(=O)N1CCCC1 | 686
Cc1nc2cc(-c3noc(-c4cccc(C(F)(F)F)c4)n3)ccc2o1 | 1220
Cc1ccc(-c2nnc(-c3cccc(S(=O)(=O)NCC(=O)O)c3)o2)cc1 | 764
O=C(NCCN1CCOCC1)C1CCCN(c2nccnc2Sc2ccccc2)C1 (stereo unspecified) | 652
CCC(C)C(NC(=O)c1ccc(C)cc1C)C(=O)Nc1nc2ccccc2[nH]1 (stereo unspecified) | 786
CS(=O)(=O)N1CCCc2cc(C(=O)NCCN3CCOCC3)ccc21 | 573
CCOC(=O)N1CCN(CC(O)COc2ccc(Cl)cc2Cl)CC1 (stereo unspecified) | 589
CCOC(=O)c1[nH]c(C)c(CN(CC2CCCO2)C(=O)c2ccc(Cl)cc2)c1C (stereo unspecified) | 1000
Cc1nc(Nc2ncc3c(n2)CC(c2ccc(F)cc2)CC3=O)nc2ccccc12 (stereo unspecified) | 756
